Laboratory results as given in PubChem BioAssay (NCI).
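Briefly, cells in 96-well plates were exposed to five compound concentrations for 48 h, and endpoints were estimated by linear interpolation. TGI denotes the concentration required for complete inhibition of growth.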

Legend:
Test in all cases: NCI-60 cell line screen, 48 h
[1] = test system: OVCAR-5 ovarian
[2] = test system: T-47D breast
[3] = test system: DU-145 prostate
[4] = test system: HT29 colon
[5] = test system: M14 melanoma
[6] = test system: SF-295 CNS
[7] = test system: SK-MEL-2 melanoma
[8] = test system: MALME-3M melanoma
[9] = test system: NCI/ADR-RES ovarian
[10] = test system: OVCAR-8 ovarian
[11] = test system: NCI-H23 lung
[12] = test system: SF-268 CNS
[13] = test system: U251 CNS
[14] = test system: COLO 205 colon
[15] = test system: SW-620 colon
[16] = test system: HCT-15 colon
[17] = test system: MDA-MB-231 breast
[18] = test system: UACC-257 melanoma
[19] = test system: NCI-H226 lung
[20] = test system: A549 NSCLC
[21] = test system: RPMI-8226 leukemia
[22] = test system: UO-31 renal
[23] = test system: MDA-N
[24] = test system: IGROV1 ovarian
[25] = test system: SK-OV-3 ovarian
[26] = test system: MCF7 breast
[27] = test system: HOP-92 NSCLC
[28] = test system: HS 578T breast
[29] = test system: CAKI-1 renal
[30] = test system: NCI-H522 lung
[31] = test system: MOLT-4 leukemia
[32] = test system: SF-539 CNS
[33] = test system: SN12C renal
[34] = test system: BT-549 breast
[35] = test system: HCC-2998 colon
[36] = test system: SR leukemia
[37] = test system: HOP-62 NSCLC
[38] = test system: A498 renal
[39] = test system: SK-MEL-5 melanoma
[40] = test system: SNB-19 CNS
[41] = test system: RXF 393 renal
[42] = test system: EKVX NSCLC
[43] = test system: KM12 colon
[44] = test system: SK-MEL-28 melanoma
[45] = test system: HCT-116 colon
[46] = test system: TK-10 renal
[47] = test system: UACC-62 melanoma
[48] = test system: CCRF-CEM leukemia
[49] = test system: HL-60(TB) leukemia
[50] = test system: PC-3 prostate
[51] = test system: SNB-75 CNS
[52] = test system: OVCAR-3 ovarian
[53] = test system: LOX IMVI melanoma
[54] = test system: 786-0 renal
[55] = test system: MDA-MB-435
[56] = test system: OVCAR-4 ovarian
[57] = test system: NCI-H460 lung
[58] = test system: K-562 leukemia
[59] = test system: ACHN renal

In the case of `O=[N+]([O-])c1ccccc1OCCOc1ccccc1[N+](=O)[O-]`, the TGI [1] is reported as > 100 µM, the TGI [2] is reported as > 100 µM and the TGI [3] is reported as > 100 µM. The TGI [4] was > 100 µM, the TGI [5] was > 100 µM and the TGI [6] was > 100 µM. The TGI [7] was > 100 µM, the TGI [8] was > 100 µM and the TGI [9] was > 100 µM. The TGI [10] was > 100 µM, the TGI [11] was > 100 µM and the TGI [12] was > 100 µM. The TGI [13] was > 100 µM, the TGI [14] was > 100 µM and the TGI [15] was > 100 µM. For the same compound, the TGI [16] was > 100 µM, the TGI [17] was > 100 µM and the TGI [18] was > 100 µM. For the same compound, the TGI [19] was > 100 µM, the TGI [20] was > 100 µM and the TGI [21] was > 100 µM. The TGI [22] was > 100 µM, the TGI [23] was > 100 µM and the TGI [24] was > 100 µM. For the same compound, the TGI [25] was > 100 µM, the TGI [26] was > 100 µM and the TGI [27] was > 100 µM. The TGI [28] was > 100 µM, the TGI [29] was > 100 µM and the TGI [30] was > 100 µM. For the same compound, the TGI [31] was > 100 µM, the TGI [32] was > 100 µM and the TGI [33] was > 100 µM. The TGI [34] was > 100 µM, the TGI [35] was > 100 µM and the TGI [36] was > 100 µM. For the same compound, the TGI [37] was > 100 µM, the TGI [38] was > 100 µM and the TGI [39] was > 100 µM. The TGI [40] was > 100 µM, the TGI [41] was > 100 µM and the TGI [42] was > 100 µM. The TGI [43] was > 100 µM, the TGI [44] was > 100 µM and the TGI [45] was > 100 µM. For the same compound, the TGI [46] was > 100 µM, the TGI [47] was > 100 µM and the TGI [48] was > 100 µM. The TGI [49] was > 100 µM, the TGI [50] was > 100 µM and the TGI [51] was > 100 µM. The TGI [52] was > 100 µM, the TGI [53] was > 100 µM and the TGI [54] was > 100 µM. For the same compound, the TGI [55] was > 100 µM, the TGI [56] was > 100 µM and the TGI [57] was > 100 µM. The TGI [58] was > 100 µM and the TGI [59] was > 100 µM.
In the case of `CNC(=S)Nc1ccc(OC)c2ccccc12`, the TGI [1] is reported as > 10 µM, the TGI [2] is reported as > 10 µM and the TGI [3] is reported as > 10 µM. The TGI [4] was > 10 µM, the TGI [5] was > 10 µM and the TGI [6] was 5.77 µM. For the same compound, the TGI [8] was > 10 µM, the TGI [9] was > 10 µM and the TGI [10] was > 10 µM. The TGI [11] was > 10 µM, the TGI [12] was > 10 µM and the TGI [13] was > 10 µM. The TGI [14] was > 10 µM, the TGI [15] was > 10 µM and the TGI [16] was > 10 µM. The TGI [17] was > 10 µM, the TGI [18] was > 10 µM and the TGI [20] was > 10 µM. The TGI [21] was > 10 µM, the TGI [23] was > 10 µM and the TGI [24] was > 10 µM. The TGI [25] was > 10 µM, the TGI [26] was > 10 µM and the TGI [27] was > 10 µM. For the same compound, the TGI [28] was > 10 µM, the TGI [29] was > 10 µM and the TGI [30] was > 10 µM. The TGI [31] was > 10 µM, the TGI [32] was > 10 µM and the TGI [33] was > 10 µM. The TGI [34] was > 10 µM, the TGI [35] was > 10 µM and the TGI [36] was > 10 µM. For the same compound, the TGI [37] was > 10 µM, the TGI [39] was > 10 µM and the TGI [40] was > 10 µM. For the same compound, the TGI [43] was > 10 µM, the TGI [44] was > 10 µM and the TGI [45] was > 10 µM. The TGI [46] was > 10 µM, the TGI [47] was > 10 µM and the TGI [48] was > 10 µM. For the same compound, the TGI [49] was > 10 µM, the TGI [50] was > 10 µM and the TGI [51] was > 10 µM. The TGI [52] was 6.72 µM, the TGI [53] was > 10 µM and the TGI [54] was > 10 µM. For the same compound, the TGI [55] was > 10 µM, the TGI [56] was > 10 µM and the TGI [58] was > 10 µM. The TGI [59] was > 10 µM.
